In patent US11964978B2, “Modulators of STING (stimulator of interferon genes)” (PFIZER INC., priority 2021, dated 2024):
Read-outs that look alike come from different tables or passages of the source.

Tests used:
[1] = test system: phosphorylation of IRF3 in THP-1 cells (STING activation); test: Phosphorylation of IRF3: THP-1 cell ELISA; type: cell-based; conditions: Homo sapiens, 3 hours incubation, read-out: THP-1 CELL P-IRF3 EC50
Description: Phosphorylation of IRF3: THP-1 cell ELISA
STING activation results in recruitment of TBK1 and phosphorylation of IRF3 transcription factor before induction of type I interferons. THP-1 cells (InvivoGen) were grown in RPMI media plus 2 mM L-glutamine, 10% fetal bovine serum, and 0.5% Pen-Strep. 10^4 cells were seeded in 96-well plates and incubated overnight […]. Compounds serial diluted compounds in media (final 0.5% DMSO) were added to the cells and incubated for an additional 3 hours. After incubation, the plates were centrifuged at 2000 rpm for 5 min. The cells were then lysed in 100 μl RIPA buffer and vortexed for 30 minutes at room temperature. 25 μl of lysate was then transferred to clear polystyrene High Bind plates that had been previously coated with mouse anti-human IRF-3 capture antibody (BD Pharmigen), and allowed to incubate at 4° C. for 16 hours. The plates were then washed and incubated with rabbit anti-phospho-IRF3 detection antibody (Cell Signaling Technologies) for 1.5 hours at room temperature. Finally, an HRP-linked secondary antibody (Cell Signaling Technologies) was added for 30 min before the Glo Substrate Reagent (R&D Systems) was used generate the luminescent signal. The signal was measured using a Perkin-Elmer Envision microplate reader. Data were normalized to “% effect” with a positive control STING agonist that was known to maximize the phosphorylated IRF3 signal and the negative control was DMSO.

[2] = test system: THP-1 Lucia ISG cells (IRF-inducible Lucia luciferase reporter); test: Interferon-β induction: THP-1 ISG reporter cell line; type: cell-based; conditions: THP1-Lucia ISG, 24 hours incubation, read-out: THP-1 Lucia ISG Cells IFN-β EC50
Description: Interferon-β Induction: THP-1 ISG Reporter Cell Line
THP-1 Lucia™ ISG cells (InvivoGen) express the secreted luciferase “Lucia” reporter gene under the control of an IRF-inducible composite promotor comprised of five interferon response elements. THP-1 Lucia™ ISG cells were grown in RPMI media plus 2 mM L-glutamine, 10% fetal bovine serum, and 0.5% Pen-Strep. Hygromycin B and Zeocin were present to maintain stable transfection. 10^4 cells were seeded in 96-well plates and incubated overnight 37° C., 5% CO2. 50 μL of serial diluted compounds in media (final 0.5% DMSO) was and incubated for an additional 24 hours. After incubation, the plates were centrifuged at 2000 rpm for 10 min. 50 μl of cell culture supernatant of each well was transferred to a white, opaque 96-well plate. One pouch of QUANTI-Luc™ (InvivoGen) powder was prepared in 25 mL of endotoxin-free water and 100 μL of prepared warm QUANTI-Luc solution were added to each well containing the supernatant. The luminescence signal was measured using a Perkin-Elmer Envision microplate reader. Data were normalized to “% effect” with a positive control STING agonist that was known to maximize the luciferase signal and the negative control DMSO.

R232-STING [3] = molecular target: T1, R232-STING (Homo sapiens (Human), UniProt Q86WV6, H232R); test: biochemical
T1 sequence (Q86WV6 155-341 H232R): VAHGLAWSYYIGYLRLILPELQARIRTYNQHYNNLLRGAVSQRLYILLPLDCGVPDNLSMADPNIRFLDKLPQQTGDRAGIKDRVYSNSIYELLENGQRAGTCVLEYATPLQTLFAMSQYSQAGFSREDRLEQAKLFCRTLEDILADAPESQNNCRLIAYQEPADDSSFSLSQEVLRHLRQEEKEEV

R232-STING [4] = molecular target: T1, R232-STING; conditions: read-out: R232-STING SPA-IC50 Ki; STING residues 155-341, 100 nM 3H-cGAMP; KI from IC50 with Cheng-Prusoff equation

EC50 [1] [µM] | EC50 [2] [µM] | Ki (R232-STING [4]) [µM] | Structure (SMILES) | Ki (R232-STING [3]) [µM]
1.23 | 1.25 |  | CCn1nc(C)cc1-c1cn(CC(C)O)c(-c2nc(C(N)=O)cc3c2cnn3C)n1 (racemic) [AIP05, (Rac)-4-[4-(1-ethyl-3-methyl-1H-pyrazol-5-yl)-1-(2-hydroxypropyl)-1H-imidazol-2-yl]-1-methyl-1H-pyrazolo[4,3-c]pyridine-6-carboxamide] | 0.0271
2.61 | 2.57 | 0.0182 | Cc1cc(-c2cn(C)c(-c3nc(C(N)=O)cc4c3cnn4C)n2)n(CC(F)(F)F)n1 [AIF06, 1-methyl-4-{1-methyl-4-[3-methyl-1-(2,2,2-trifluoroethyl)-1H-pyrazol-5-yl]-1H-imidazol-2-yl}-1H-pyrazolo[4,3-c]pyridine-6-carboxamide] | 

Structure (SMILES) | EC50 [1] [µM] | EC50 [2] [µM] | Ki (R232-STING [4]) [µM] | Ki (R232-STING [3]) [µM]
Cc1cc(-c2cn(C)c(-c3nc(C(N)=O)cc4c3ccn4C)n2)n(CCCO)n1 [AIJ02, 4-{4-[1-(3-hydroxypropyl)-3-methyl-1H-pyrazol-5-yl]-1-methyl-1H-imidazol-2-yl}-1-methyl-1H-pyrrolo[3,2-c]pyridine-6-carboxamide] | 1.51 | 1.92 |  | 0.0397
